Results published in US20060121499A1, “Methods of identifying glucocorticoids without the detrimental side effects of bone loss” (priority 2004, published 2006).
Starred links: 1 amine or outer side, 2 acyl side, 3 side chain; linkers in the order of their positions; H or OH if unused. Positions of bridges follow the written chain, without caps; N, C: chain ends. Non-standard residues stand in square brackets, D forms with d. Residues, ends and D or L forms follow the SMILES beside them. Chains are numbered I, II in the order given. No end group written: not given here. Actinocin(9to1) = Cc1c2oc3c(C)ccc(C(=O)[*:1])c3nc-2c(C(=O)[*:2])c(N)c1=O; NMeV = CN[C@H](C(=O)O)C(C)C; Sar = CNCC(=O)O

Columns and labels:
[1] = tested on: MLO-Y4 osteocytic cells; assay: Quantification of apoptotic cells (nuclear morphology, nGFP) in MLO-Y4 osteocytic cells; format: cell-based, murine; details: for effect on dexamethasone (glucocorticoid)-induced apoptosis: inhibitor added 30 minute before dexamethasone 10^−6 M, 6 hour treatment
Description: The murine long bone-derived osteocytic cell line MLO-Y4 was kindly provided by Dr. Lynda Bonewald (University of Missouri-Kansas City, Kansas City, Mo.). Cells were cultured in phenol red-free AMEM supplemented with 2.5% FBS, 2.5% bovine calf serum, 100 U/ml penicillin and 100 μg/ml streptomycin. Cells were plated at 1-2×10^4 cells/cm^2 on collagen type I (Sigma Chemical Co., St. Louis, Mo.) coated plates, as described previously (Kato,Y. et al., J. Bone Min.Res., 12:2014-2023 (1997)).
MLO-Y4 cells stably expressing nuclear green fluorescent protein (nGFP) were obtained using the retroviral vector containing the nGFP, provided by Dr. Charles O'Brien (University of Arkansas for Medical Sciences, Little Rock, Ark.). The SV40 large T antigen nuclear localization sequence (Kalderon,D., et al., Cell, 39:499-509 (1984)) was attached to the carboxy-terminus of the cDNA construct encoding nGFP and subcloned into the pLXSN retroviral vector (Clontech, Palo Alto, Calif.). The plasmid harboring the retroviral construct was transiently transfected into the packaging cell line Phoenix Eco (Grignani, F. et al., Cancer Res. 58:14-19 (1998)) using SuperFect (Qiagen, Santa Clarita, Calif.). Supernatants containing retroviral particles were collected 24-48 h after transfection, and used immediately to infect cell cultures. Subconfluent MLO-Y4 osteocytic cells were exposed to viral supernatants in the presence of 8 μg/ml polybrene for 8 h and then incubated in fresh culture medium for 16 hours. Subsequently, cells were exposed to the supernatants containing the viral particles once more before being trypsinized and plated at low density. Transduced cells were selected by culturing them in the presence of 400 μg/ml of geneticin (G418, Sigma Chemical Co., St. Louis, Mo.) for three weeks (Plotkin,L. I., et al., J. Clin. Invest. 104:1363-1374 (1999)).
Apoptosis was induced in semiconfluent cultures by treatment for the indicated times with the glucocorticoid, dexamethasone (10^−6 M, Sigma Chemical Co., St. Louis, Mo.) or with etoposide (50 μM, Sigma Chemical Co., St. Louis, Mo.). Inhibitors were added 30 minute before the addition of the pro-apoptotic agent at the following concentrations: the RNA synthesis inhibitor actinomycin D (2×10^−6M, Sigma Chemical Co., St. Louis, Mo.), the protein synthesis inhibitor cycloheximide (10^−6 M, Sigma Chemical Co., St. Louis, Mo.), the MEK inhibitor PD98059 (50 μM, New England Biolabs, Beverly, Mass.), the Src inhibitor PP1 (5 μM, BioSource International, Camarillo, Calif.), the p38 inhibitor SB203580 (10^−4 M, Sigma Chemical Co., St. Louis, Mo.), the P13K inhibitor wortmannin (30 nM, Sigma Chemical Co., St. Louis, Mo.), the JNK inhibitor SP600125 (3 μM, EMD Biosciences, Inc, San Diego, Calif.) or the caspase-3 inhibitor Asp-Glu-Val-Asp-aldehide (DEVD-CHO) (50 nM, Biomol Research Lab., Inc., Plymouth Meeting, Pa.).
Following the treatment with the pro-apoptotic agents, cells were fixed for 8 minutes with neutral buffer formalin and stored at 4° C. until analyzed.
Cells were transiently transfected using Lipofectamine Plus (Gibco BRL, Gaithersburg, Md.) as previously described (Plotkin,L. I. et. al., J. Biol.Chem. 277:8648-8657 (2002) and Kousteni, S. et al., Cell, 104:719-730 (2001)). Briefly, cells were cultured in the absence of serum or antibiotics for 3 hours in the presence of 20 μl/ml Plus reagent and 10 μl/ml Lipofectamine together with […] of each of the following DNA constructs: pCDNA3 vector (obtained from Clontech, Palo Alto, Calif.), wild type FAK (provided by Dr. Sandro Aruffo, Bristol-Myers Squibb Pharmaceutical Research Institute, Princeton, N.J. (Chan,P. Y. et al., Methods Mol Biol. 2000.;99.(1.):109.-25. 269:20567-20574 (1994)), or wild type Pyk2, kinase deficient Pyk2 mutant or autophosphorylation deficient Pyk2 mutant (provided by Dr. Wen-Cheng Xiong, University of Alabama at Birmingham, Birmingham, Ala. (Xiong,W. and Parsons,J. T., J Cell Biol 139:529-53(1997)).

[2] = tested on: MLO-Y4 osteocytic cells; assay: Quantification of cell detachment (number of cytoplasmic processes) in MLO-Y4 cells; format: cell-based, murine
Description: Apoptosis was induced in semiconfluent cultures by treatment for the indicated times with the glucocorticoid, dexamethasone (10^−6 M, Sigma Chemical Co., St. Louis, Mo.) or with etoposide (50 μM, Sigma Chemical Co., St. Louis, Mo.). […]
The effect of dexamethasone or etoposide on cell detachment was quantified by enumerating the number of cytoplasmic processes of MLO-Y4 cells expressing GFP. […]
Apoptosis and cell attachment were determined in the same cultures by examining nuclear morphology (FIG. 2A) and quantifying the number of cytoplasmic processes (FIG. 2B), respectively. Apoptosis was determined by examining nuclear fragmentation and chromatin condensation and cell detachment by quantifying the number of cytoplasmic processes in the same cells. […]

Molecule	effect on dexamethasone (glucocorticoid)-induced apoptosis [1]	also measured
CC(=O)OCOC(=O)CN(CC(=O)OCOC(C)=O)c1ccccc1OCCOc1ccccc1N(CC(=O)OCOC(C)=O)CC(=O)OCOC(C)=O [BAPTA-AM]	abolished	–
Cc1c2oc3c(C)ccc(C(=O)N[C@@H]4C(=O)N[C@H](C(C)C)C(=O)N5CCC[C@H]5C(=O)N(C)CC(=O)N(C)[C@@H](C(C)C)C(=O)O[C@@H]4C)c3nc-2c(C(=O)N[C@@H]2C(=O)N[C@H](C(C)C)C(=O)N3CCC[C@H]3C(=O)N(C)CC(=O)N(C)[C@@H](C(C)C)C(=O)O[C@@H]2C)c(N)c1=O [actinomycin D] (I: T[dV]P[Sar][NMeV] / II: T[dV]P[Sar][NMeV]; ester I:1-I:C, II:1-II:C; linker I:N-II:N via Actinocin(9to1))	dexamethasone was able to induce apoptosis	–
C[C@@H]1C[C@@H]([C@H](O)CC2CC(=O)NC(=O)C2)C(=O)[C@@H](C)C1 [cycloheximide]	dexamethasone was able to induce apoptosis	–
COc1cc([C@@H]2c3cc4c(cc3[C@@H](O[C@@H]3O[C@@H]5CO[C@@H](C)O[C@H]5[C@H](O)[C@H]3O)[C@H]3COC(=O)[C@H]23)OCO4)cc(OC)c1O [etoposide]	–	number of cells exhibiting three or less cytoplasmic processes (cell attachment) ([2]; dexamethasone: as early as after 1 h, etoposide: duration of the experiment): did not exhibit changes in cell attachment; apoptosis (nuclear fragmentation and chromatin condensation) ([1]; 6 hours of treatment, dexamethasone 10^−6 M, etoposide 50 μM): induced apoptosis; apoptosis in cells overexpressing FAK ([1]; transient transfection wild type FAK, 6 hours): not protected; apoptosis in cells overexpressing Pyk2 ([1]; transient transfection wild type Pyk2, 6 hours): remained responsive; apoptosis in cells transfected with wild type Pyk2 vector ([1]; transient transfection, co-transfected nGFP, 6 hours): exhibited apoptosis
[Gd] [gadolinium]	abolished	–
C/C=C(/C)C(=O)O[C@H]1C(C)=C2[C@H]([C@@H]1OC(=O)CCCCCCC)[C@@](C)(OC(C)=O)C[C@H](OC(=O)CCC)[C@@]1(O)[C@H]2OC(=O)[C@@]1(C)O [thapsigargin]	had no effect	–
Asp-Glu-Val-Asp-aldehide (DEVD-aldehyde)	abolished	effect on dexamethasone-induced changes in cell attachment ([2]; inhibitor added 30 minute before dexamethasone 10^−6 M): did not reverse
